# Counter-ions that a name gives are not always drawn.
# Legend:
# [1] = biological target: T1, recombinant human Dopamine Subtype D2s receptors (Homo sapiens, UniProt P14416); assay: Dopamine D2 selectivity binding assay ([3H]-spiperone); details: inhibition of [3H]-spiperone (0.16 nM) binding; for IC50: read-out: D2 bind pIC50 (converted)
# T1 construct: purchased Perkin Elmer
# How it was run: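 Displacement of [3H]-spiperone (0.16 nM final) from human D2s receptor membranes in pH 7.4 HEPES buffer over 2 h at room temperature, then filtration and scintillation counting. Specific binding taken as vehicle minus 10 μM haloperidol wells. Potency given as pIC50 from a four-parameter logistic curve.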
# Adrenergic β2 = biological target: T2, Adrenergic β2 (Homo sapiens, UniProt P07550); assay: Adrenergic β2 mediated cAMP production in H292 cells; format: cell-based; details: for EC50: read-out: β2 pEC50 (converted); for β2 Int Act: Intrinsic Activity as a fraction relative to the maximum activity determined for formoterol
# T2 construct: Adherent H292 cells were removed from tissue culture flasks; endogenous in cells; host or cells: H292 cells
# How it was run: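 cAMP accumulation in adherent H292 cells, measured by AlphaScreen and calibrated with cAMP standards. Compounds incubated 60 min at room temperature after 10 min rolipram (final 300 μM; vehicle 1.6% DMSO). pEC50 and intrinsic activity, as a fraction of formoterol's maximum, from four-parameter logistic fit.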
# [2] = biological target: T3, recombinant human adrenergic beta 1 receptors (Homo sapiens, UniProt P08588); assay: Adrenergic β1 selectivity binding assay ([125I]-Iodocyanopindolol); details: inhibition of [125I]-Iodocyanopindolol (0.036 nM) binding; for IC50: read-out: β1 bind p IC50 (converted)
# T3 construct: purchased Euroscreen
# How it was run: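 Displacement of [^125I]-Iodocyanopindolol (0.036 nM final) from human β1 receptor membranes, 2 hours at room temperature, pH 7.4 HEPES/EDTA/NaCl buffer. After filtration, scintillation counting; NSB set with 10 μM propranolol and subtracted. Four-parameter logistic fitting gave pIC50.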
# [3] = H292 cells, cAMP by AlphaScreen, 60 minutes at room temperature, rolipram 300 μM
# T1 sequence (P14416 1-414 isoform P14416-2): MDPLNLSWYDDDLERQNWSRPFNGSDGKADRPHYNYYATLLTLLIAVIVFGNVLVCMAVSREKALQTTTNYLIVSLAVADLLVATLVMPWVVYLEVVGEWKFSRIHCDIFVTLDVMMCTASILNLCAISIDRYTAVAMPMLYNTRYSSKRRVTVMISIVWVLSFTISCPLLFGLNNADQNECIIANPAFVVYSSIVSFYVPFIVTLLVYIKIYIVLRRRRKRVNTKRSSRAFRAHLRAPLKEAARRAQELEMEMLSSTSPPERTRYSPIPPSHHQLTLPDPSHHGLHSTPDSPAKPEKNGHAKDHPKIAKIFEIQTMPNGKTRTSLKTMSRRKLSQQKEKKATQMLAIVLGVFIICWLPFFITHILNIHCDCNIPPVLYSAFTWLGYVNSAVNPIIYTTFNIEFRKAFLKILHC
# T2 sequence (P07550 whole entry): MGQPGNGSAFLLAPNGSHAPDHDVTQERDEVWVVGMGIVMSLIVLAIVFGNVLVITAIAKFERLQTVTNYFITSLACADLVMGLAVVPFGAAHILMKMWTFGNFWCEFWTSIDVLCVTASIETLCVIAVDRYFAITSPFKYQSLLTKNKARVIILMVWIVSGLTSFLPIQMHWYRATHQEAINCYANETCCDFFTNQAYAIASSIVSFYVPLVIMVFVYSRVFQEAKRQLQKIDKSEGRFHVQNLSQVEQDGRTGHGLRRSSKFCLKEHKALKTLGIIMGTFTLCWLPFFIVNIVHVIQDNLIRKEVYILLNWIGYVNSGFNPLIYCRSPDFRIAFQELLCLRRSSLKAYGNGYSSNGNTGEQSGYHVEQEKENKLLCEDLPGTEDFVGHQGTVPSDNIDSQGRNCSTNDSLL
# T3 sequence (P08588 whole entry): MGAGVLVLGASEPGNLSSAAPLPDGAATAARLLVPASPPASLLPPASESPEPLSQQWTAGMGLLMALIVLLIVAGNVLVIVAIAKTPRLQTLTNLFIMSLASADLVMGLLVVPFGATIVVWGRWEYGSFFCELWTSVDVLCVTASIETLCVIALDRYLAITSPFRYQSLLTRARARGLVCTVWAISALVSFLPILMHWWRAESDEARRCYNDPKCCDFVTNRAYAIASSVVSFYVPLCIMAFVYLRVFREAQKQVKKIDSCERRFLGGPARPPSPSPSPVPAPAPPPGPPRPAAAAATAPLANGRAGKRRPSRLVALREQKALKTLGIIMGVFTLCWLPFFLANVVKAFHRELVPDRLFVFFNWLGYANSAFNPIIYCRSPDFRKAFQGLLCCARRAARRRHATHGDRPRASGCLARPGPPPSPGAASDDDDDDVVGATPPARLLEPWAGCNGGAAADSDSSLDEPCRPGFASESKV
IC50 [1],EC50 (Adrenergic β2; [3]),β2 Int Act (Adrenergic β2),IC50 [2],Compound,D2 bind pIC50 [1],β2 pEC50 (Adrenergic β2; [3]),β1 bind p IC50 [2]
100 nM,2 nM,0.82,6310 nM,"NS(=O)(=O)c1ccc(CCNCCC(=O)N(CCNCCc2ccc(O)c3[nH]c(=O)sc23)C2CCCCC2)cc1 [Example 69, N^3-{2-[4-(Aminosulfonyl)phenyl]ethyl}-N^1-cyclohexyl-N^1-(2-{[2-(4-hydroxy-2-oxo-2,3-dihydro-1,3-benzothiazol-7-yl)ethyl]amino}ethyl)-β-alaninamide bis-trifluoroacetic acid salt]",–,–,–
158 nM,20 nM,0.70,1000 nM,"CC(C)(CO)CN(CCNCCc1ccc(O)c2[nH]c(=O)sc12)C(=O)CCNCCc1cccc(Cl)c1Cl [Example 67, N^3-[2-(2,3-Dichlorophenyl)ethyl]-N^1-(3-hydroxy-2,2-dimethylpropyl)-N^1-(2-{[2-(4-hydroxy-2-oxo-2,3-dihydro-1,3-benzothiazol-7-yl)ethyl]amino}ethyl)-β-alaninamide bis-trifluoroacetic acid salt]",–,–,–
–,–,–,–,"O=C(CCNCCc1cccc(F)c1)N(CCNCCc1ccc(O)c2[nH]c(=O)sc12)C1CCCCC1 [Example 15, N-Cyclohexyl-N^3-[2-(3-fluorophenyl)ethyl]-N-(2-{[2-(4-hydroxy-2-oxo-2,3-dihydro-1,3-benzothiazol-7-yl)ethyl]amino}ethyl)-β-alaninamide bis-trifluoroacetic acid salt]",6.4,8.6,5.2
126 nM,5.01 nM,0.71,3160 nM,"O=C(CCNCCc1ccc(Cl)cc1)N(CCNCCc1ccc(O)c2[nH]c(=O)sc12)C1CCCCC1 [Example 13, N^3-[2-(4-Chlorophenyl)ethyl]-N-cyclohexyl-N-(2-{[2-(4-hydroxy-2-oxo-2,3-dihydro-1,3-benzothiazol-7-yl)ethyl]amino}ethyl)-β-alaninamide bis-trifluoroacetic acid salt]",–,–,–
79.4 nM,20 nM,0.89,1000 nM,"O=C(CCNCCc1c(F)cccc1F)N(CCNCCc1ccc(O)c2[nH]c(=O)sc12)C1CCCCCC1 [Example 84, N^1-Cycloheptyl-N^3-[2-(2,6-difluorophenyl)ethyl]-N^1-(2-{[2-(4-hydroxy-2-oxo-2,3-dihydro-1,3-benzothiazol-7-yl)ethyl]amino}ethyl)-β-alaninamide bis-trifluoroacetic acid salt]",–,–,–
20 nM,10 nM,0.81,2510 nM,"O=C(CCNCCc1ccc(F)cc1F)N(CCNCCc1ccc(O)c2[nH]c(=O)sc12)C1CCCCCC1 [Example 55, N^1-Cycloheptyl-N^3-[2-(2,4-difluorophenyl)ethyl]-N^1-(2-{[2-(4-hydroxy-2-oxo-2,3-dihydro-1,3-benzothiazol-7-yl)ethyl]amino}ethyl)-β-alaninamide bis-trifluoroacetic acid salt]",–,–,–
398 nM,10 nM,0.87,6310 nM,"O=C(CCNCCc1ccc(Cl)cc1)N(CCNCCc1ccc(O)c2[nH]c(=O)sc12)C1CCCC1 [Example 28, N^3-[2-(4-Chlorophenyl)ethyl]-N-cyclopentyl-N-(2-{[2-(4-hydroxy-2-oxo-2,3-dihydro-1,3-benzothiazol-7-yl)ethyl]amino}ethyl)-β-alaninamide bis-trifluoroacetic acid salt]",–,–,–
501 nM,3.98 nM,0.84,7940 nM,"Cc1cccc(CCNCCC(=O)N(CCNCCc2ccc(O)c3[nH]c(=O)sc23)C2CCCCC2)c1 [Example 14, N-Cyclohexyl-N-(2-{[2-(4-hydroxy-2-oxo-2,3-dihydro-1,3-benzothiazol-7-yl)ethyl]amino}ethyl)-N^3-[2-(3-methylphenyl)ethyl]-β-alaninamide bis-trifluoroacetic acid salt]",–,–,–
398 nM,12.6 nM,0.59,1000 nM,"CC(C)(CO)CN(CCNCCc1ccc(O)c2[nH]c(=O)sc12)C(=O)CCNCCc1ccccc1Cl [Example 65, N^3-[2-(2-Chlorophenyl)ethyl]-N^1-(3-hydroxy-2,2-dimethylpropyl)-N^1-(2-{[2-(4-hydroxy-2-oxo-2,3-dihydro-1,3-benzothiazol-7-yl)ethyl]amino}ethyl)-β-alaninamide bis-trifluoroacetic acid salt]",–,–,–
794 nM,63.1 nM,0.42,5010 nM,"CC(C)(C)CN(CCNCCc1ccc(O)c2[nH]c(=O)sc12)C(=O)CCNC(C)(C)Cc1ccccc1 [Example 38, N^3-(1,1-Dimethyl-2-phenylethyl)-N-(2,2-dimethylpropyl)-N-(2-{[2-(4-hydroxy-2-oxo-2,3-dihydro-1,3-benzothiazol-7-yl)ethyl]amino}ethyl)-β-alaninamide bis-trifluoroacetic acid salt]",–,–,–
50.1 nM,10 nM,0.69,2510 nM,"O=C(CCNCCc1cccc(OC(F)F)c1)N(CCNCCc1ccc(O)c2[nH]c(=O)sc12)C1CCCCCC1 [Example 54, N-Cycloheptyl-N^3-{2-[3-(difluoromethoxy)phenyl]ethyl}-N^1-(2-{[2-(4-hydroxy-2-oxo-2,3-dihydro-1,3-benzothiazol-7-yl)ethyl]amino}ethyl)-β-alaninamide bis-trifluoroacetic acid salt]",–,–,–
794 nM,10 nM,0.79,2510 nM,"O=C(CCNCCc1ccc(F)cc1)N(CCNCCc1ccc(O)c2[nH]c(=O)sc12)CC12CC3CC(CC(C3)C1)C2 [Example 61, N^1-(1-Adamantylmethyl)-N^3-[2-(4-fluorophenyl)ethyl]-N^1-(2-{[2-(4-hydroxy-2-oxo-2,3-dihydro-1,3-benzothiazol-7-yl)ethyl]amino}ethyl)-β-alaninamide bis-trifluoroacetic acid salt]",–,–,–

# — patent publication US20100022491A1, “4-HYDROXY-2-OXO-2,3-DIHYDRO-1,3-BENZOTHIAZOL-7YL COMPOUNDS FOR MODULATION OF B2-ADRENORECEPTOR ACTIVITY” (ASTRAZENECA AB, priority 2006, published 2010)
